Laboratory results reported in PubChem BioAssay (NCI).
Where “and” joins values, the source holds several entries; their conditions need not be identical. Identical values can stand only once.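 Following 48 hours of exposure in 96-well plates, responses at five concentrations were used to interpolate endpoints linearly. Here, GI50 denotes the concentration required for 50% inhibition of growth. The concentration for full growth arrest is given as TGI.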

Legend:
Test in all cases: NCI-60 cell line screen, 48 h
[1] = tested on: HCT-116 colon
[2] = tested on: HL-60(TB) leukemia
[3] = tested on: K-562 leukemia
[4] = tested on: MALME-3M melanoma
[5] = tested on: NCI-H460 lung
[6] = tested on: RXF 393 renal
[7] = tested on: SK-MEL-28 melanoma
[8] = tested on: T-47D breast
[9] = tested on: UO-31 renal
[10] = tested on: SK-MEL-5 melanoma

Row | Compound | TGI [1] | TGI [2] | TGI [3] [µM] | TGI [4] [µM] | TGI [5] [µM] | TGI [6] [µM] | TGI [7] [µM] | TGI [8] [µM] | TGI [9] | TGI [10] [µM] | GI50 [1] | GI50 [2] [µM] | GI50 [5] [µM] | GI50 [9]
1 | CCOC(=O)/C=C(/C(=O)OCC)n1c(=O)c(C)cn(C2CC(N=[N+]=[N-])C(CO)O2)c1=O (stereo not given) | > 100 µM | 5.18 µM | > 100 | > 100 | > 100 | 57.2 | 84.6 | > 100 | > 100 µM |  |  |  |  | 
2 | COC(=O)C1(NC(=O)C(N)CC(=O)O)C(C)C1C (stereo not given) | > 100 µM | > 100 µM | > 100 | > 100 | > 100 | > 100 | > 100 | > 100 | > 100 µM | > 100 |  |  |  | 
3 | COC(=O)C1=C(OC(=O)/C(=C/c2ccc(Cl)cc2)c2ccccc2)C(C(=O)OC)[C@@]2(O)[C@@H](C(=O)OC)[C@H](C)C[C@@H]1[C@@H]2C(=O)OC (stereo not given in full) | > 100 µM | > 100 µM | > 100 | > 100 | > 100 | > 100 | > 100 | > 100 | > 100 µM | > 100 |  |  |  | 
4 | CC(C)OC(=O)c1ccc(CCC2=CC(=O)C(Br)=CC2=O)cc1 | 30.6 µM | 9.25 µM | 9.12 | 29.1 | 46.6 | 31.2 | 32.7 | 45 | 27.1 µM | 25.7 |  |  |  | 
5 | O=C1c2ccccc2C(=O)N1C(=S)c1ccccc1 | > 100 µM | > 100 µM | > 100 | > 100 | > 100 | > 100 | > 100 | > 100 | > 100 µM | > 100 |  |  |  | 
6 | O=C(c1ccc(Cl)cc1)N1N=C(c2ccc(Cl)cc2)CC1(O)c1cc(F)c(Cl)cc1Cl (stereo not given) | 26.4 µM | 87 µM | > 100 | > 100 | > 100 | > 100 | > 100 | > 100 | 22.2 µM | > 100 |  |  |  | 
7 | CCCCCC(/C=C/[C@@H]1CC(=O)C[C@H]1O[Si](C)(C)C(C)(C)C)OCOCCOC (stereo not given in full) | 13.5 µM | > 100 µM | 6.43 | 5.32 | 40.2 | 5.45 | 10.5 | 44 | 6.44 µM | 9.33 |  |  |  | 
8 | N#CSCC1COc2ccccc2O1 (stereo not given) | > 10 µM | 8.66 µM | > 10 | > 10 | > 10 | > 10 | > 10 | > 10 | > 10 µM | > 10 |  |  |  | 
9 | Cc1nc2ccccc2c(=O)n1NC(=O)Cc1ccccc1 | > 100 µM | > 100 µM | > 100 | > 100 | > 100 | > 100 | > 100 | > 100 | > 100 µM | > 100 |  |  |  | 
10 | O=C1C=CC2(O[C@@H](Cc3ccccc3)[C@H](Cc3ccccc3)O2)C(SC(=O)c2ccccc2)C1 (stereo not given in full) | 0.375 µM | 4.82 µM | 89.4 | 5.06 | 9.56 | 0.325 | 3.44 | 11.3 | 1.87 µM | 3.16 |  |  |  | 
11 | Cc1cc(=O)c2c(O)c3c(O)cc(O)c4c5c(O)cc(O)c6c(O)c7c(=O)cc(C)c8c1c2c(c34)c(c65)c78 | > 100 µM and 64.2 µM | > 100 µM and 30.7 µM | > 100 | > 100 | > 100 | 88.8 | > 100 | > 100 | > 100 µM and 65.9 µM | > 100 | > 100 µM and 21.6 µM | 11.7 | 33.2 | > 100 µM and 25.5 µM
12 | Cc1nnc(N)nc1/C=C\c1cccs1 | 35.5 µM | 31.7 µM | 59.7 | 29.4 | 32.5 | 40.8 | > 100 | > 100 | 40.9 µM |  |  |  |  | 
13 | C/C=C/C=C/C1=NN(c2cccc(S(=O)(=O)O)c2)C2(C1)SCC(=O)N2c1nc2ccccc2s1 (stereo not given) | > 100 µM | > 100 µM | > 100 | > 100 | > 100 | > 100 | > 100 | > 100 | > 100 µM | > 100 |  |  |  | 
14 | Cc1ccccc1NC(=S)N/N=C(/c1ccccc1)c1ccccn1 | 17.2 µM | 1.24 µM | 4.17 | 11.8 | 9.05 | 12.3 | 16.8 | 12.4 | 4.25 µM | 3.93 |  |  |  | 
15 | CCN(CC)C(=S)SNCCc1ccc(S(N)(=O)=O)cc1 | 26.4 µM | > 67.2 µM | > 100 | 24.3 | > 100 | 22.1 | 25.8 | 45.1 | 27 µM | 24.4 |  |  |  | 
16 | C1OCN2c3nonc3N3COCN4c5nonc5N1C2C43 (stereo not given) | > 100 µM | > 100 µM | > 100 | > 100 | > 100 | > 100 | > 100 | > 100 | > 100 µM | > 100 |  |  |  | 
17 | CC1(C)Oc2ccc(Cl)cc2C12CC2 | 29 µM | 40.3 µM | 39.2 | 43.2 | 39.7 | 30.2 | 41.7 | 73.8 | 30.8 µM | 38.6 |  |  |  | 

Row | Compound | TGI [1] | TGI [2] | TGI [3] [µM] | TGI [4] [µM] | TGI [5] [µM] | TGI [6] [µM] | TGI [7] [µM] | TGI [8] [µM] | TGI [9] | TGI [10] [µM] | GI50 [1] | GI50 [2] [µM] | GI50 [5] [µM] | GI50 [9]
18 | NCCCCNCCCN | > 100 µM | > 100 µM | > 100 | > 100 | > 100 | > 100 | > 100 | > 100 | > 100 µM | > 100 |  |  |  | 
19 | O=[N+]([O-])c1cccc2nc3ccccc3c(NCCC[N+]3([O-])CCCCC3)c12 | 1.04 µM | 8.44 µM | > 100 | 0.352 | 1.18 | 2 | 5.11 | 4.9 | > 58.6 µM | 1.35 |  |  |  | 
20 | CC1=CC(=O)c2cccc(NC3=NCCO3)c21 | > 100 µM | 41.2 µM | > 100 | 91.6 | > 100 | > 100 | > 100 | > 100 | > 100 µM | 42.3 |  |  |  | 
21 | CC(=O)NC1C(OCc2ccccc2)OC(CO)C(O)C1OCC(=O)NC(C)C(=O)NC(CCC(=O)NCCCCCC(=O)Nc1ccc2c(c1)CN1C(=O)c3ccccc3C1=N2)C(N)=O (stereo not given) | > 100 µM | > 100 µM | > 100 | > 100 | > 100 | > 100 | > 100 | > 100 | > 100 µM | > 100 |  |  |  | 
22 | O=c1c2cc(-c3ccccc3)cnc2sn1-c1ccc([N+](=O)[O-])cc1 | > 100 µM | > 100 µM | > 100 | > 100 | > 100 | 82.1 | > 100 | > 100 | > 100 µM |  |  |  |  | 
23 | CC(O)(c1ccccc1)c1nccc2ccccc12 (stereo not given) | > 100 µM | > 100 µM | > 100 | > 100 | > 100 | > 100 | > 100 | > 100 | > 100 µM | > 100 |  |  |  | 
24 | Cc1ccc(S(=O)(=Nc2ccccc2)C(C(C)C)C(C)(C)Cl)cc1 (stereo not given) | > 50 µM | 22 µM | > 50 | > 50 | 45.4 | > 50 |  | > 50 | > 50 µM | 16.7 |  |  |  | 
25 | Cc1ccccc1NC(=S)N=Nc1c(O)[nH]c2ccccc12 | > 100 µM | > 100 µM | > 100 | > 100 | > 100 | > 100 | 36.7 | > 100 | > 100 µM | > 100 |  |  |  | 
26 | FC1CCN(C2(c3cccs3)CCCCC2)CC1 | > 100 µM | > 100 µM | > 100 | > 100 | > 100 | > 100 | > 100 | > 100 | > 100 µM | > 100 |  |  |  | 
27 | CC(=O)O[C@H]1CC[C@@]2(C)C(=CC[C@@H]3[C@@H]2CC[C@]2(C)c4nc(N)c(C#N)cc4C[C@@H]32)C1 | > 100 µM | > 94.9 µM | > 100 | > 100 | > 100 | 49 | > 100 | > 96.6 | > 100 µM | 43.4 |  |  |  | 
28 | COc1cc2c3c(cc(Cl)nc3c1OC)C(O)(CC(C)=O)C(=O)N2 (stereo not given) | 31.3 µM | 24.1 µM | > 95 | 29.8 | > 89.6 | 30.7 | > 60.7 | > 100 | > 55.6 µM | > 56 |  |  |  | 
29 | [N-]=[N+]=C1CNC(=O)NC1=O | > 100 µM | > 100 µM | > 100 | > 100 | > 100 | > 100 | > 100 | > 100 | > 100 µM | > 100 |  |  |  | 
30 | CN(C)CCCNC(=O)c1cc(NC(=O)c2cc(NC(=O)c3cc(NC(=O)CCCn4ccc(CO)c4CO)cn3C)cn2C)cn1C | > 100 µM | > 100 µM | > 100 | 37.4 | > 100 | 6.24 | 42.1 | > 100 | > 100 µM | 12.7 |  |  |  | 
31 | O=C1CCC2=C(CCC2)N1CCc1ccc2c(c1)OCO2 | > 100 µM | 55.7 µM | > 100 | > 100 | > 100 | 52.5 | > 100 | > 100 | > 100 µM | > 100 |  |  |  | 
32 | O=C1Nc2ccccc2NC1C1OC(c2ccccc2)=CC1=O (stereo not given) | > 100 µM | > 100 µM | > 100 | > 100 | > 100 | > 100 | > 100 | > 100 | > 100 µM | > 100 |  |  |  | 
33 | O=C([C@H](O)[C@@H](O)c1ccc(Br)cc1)C12CC3CC(CC(C3)C1)C2 | > 51.9 µM | > 26.5 µM | > 100 | 51.4 | 16.1 | > 100 | > 68.6 | > 29.3 | > 55.2 µM | > 56.2 |  |  |  | 
